Values after ≈ are worked out from the molar mass of the structure shown. Bounds are passed on as bounds.

The record followed here is ChEMBL document CHEMBL1128890, “Synthesis and antifungal activities of optically active isomers of SM-8668” (1995).

Holding throughout (type): functional
One assay deals with Candida albicans. In words: Minimum inhibitory concentration required for in vitro antifungal activity against Candida albicans KB-8 strain.
Assay [1] concerns Mus musculus. In words: Effective dose against Aspergillus fumigatus MTU6001 strain after iv administration in murine.
For assay [2], the system named is Mus musculus. Description: Effective dose against Candida albicans KB-8 strain after iv administration in murine.
For assay [3], the system named is Mus musculus. In words: Effective dose against Aspergillus fumigatus MTU6001 strain after po administration in murine.
The test system of another assay is Aspergillus fumigatus. In words: Minimum inhibitory concentration required for in vitro antifungal activity against Aspergillus fumigatus MTU6001 strain.
Assay [4] relates to Mus musculus. In words: Effective dose against Candida albicans KB-8 strain after po administration in murine.

The MIC is the smallest concentration in the dilution series that meets the test's criterion for growth inhibition. Low values mean inhibition by little substance, high ones a need for much substance. As a reminder, the ED50 is the dose at which the effect has come halfway, by size or by number of responders. A high value points to a need for a large dose. In the case of `C[C@@H]([C@@](O)(Cn1cncn1)c1ccc(F)cc1F)S(C)(=O)=O`, the MIC against Candida albicans was 50 µg/mL (≈ 151 µM); with Aspergillus fumigatus, above 800 µg/mL. For the same compound, the ED50 with Mus musculus [1] is above 25 mg/kg; in the assay on Mus musculus [2] it was above 25 mg/kg; in the assay with Mus musculus [3], above 125 mg/kg; with Mus musculus [4], above 100 mg/kg.

Consider `CC(C(O)(Cn1cncn1)c1ccc(F)cc1F)S(C)(=O)=O` (racemic), for which the MIC is 0.2 µg/mL (≈ 0.604 µM) against Candida albicans and 12.5 µg/mL (≈ 37.7 µM) against Aspergillus fumigatus. The figures for the ED50 with Mus musculus [3] and with Mus musculus [4] were 18 mg/kg and 0.38 mg/kg, respectively.

With `C[C@H]([C@](O)(Cn1cncn1)c1ccc(F)cc1F)S(C)(=O)=O` [GENACONAZOLE], the MIC stood at 0.1 µg/mL (≈ 0.302 µM) in the assay on Candida albicans and 6.25 µg/mL (≈ 18.9 µM) in the assay on Aspergillus fumigatus. For the same compound, the median effective dose (ED50) in the assay with Mus musculus [1] was 5.3 mg/kg; with Mus musculus [2], 0.26 mg/kg; in the assay with Mus musculus [3], 4.1 mg/kg; with Mus musculus [4] it was 0.27 mg/kg.
